Source: the NIST ThermoML archive (doi:10.1016/j.jct.2016.07.026)
Numbers after ± are expanded uncertainties.

Experiment: wn = mass fraction of the nth substance listed
Details: 101 kPa, Liquid, Concentric cylinders viscometry

O=C([O-])[O-].[K+].[K+] [potassium carbonate] + O
viscosity (303.2 K, w1 = 0.15): 1.27 ± 0.04 mPa·s
viscosity (303.2 K, w1 = 0.2): 1.43 ± 0.04 mPa·s
viscosity (303.2 K, w1 = 0.2501): 1.64 ± 0.04 mPa·s
viscosity (313.2 K, w1 = 0.15): 1.08 ± 0.04 mPa·s
viscosity (313.2 K, w1 = 0.2): 1.22 ± 0.04 mPa·s
viscosity (313.2 K, w1 = 0.2501): 1.39 ± 0.04 mPa·s
viscosity (323.2 K, w1 = 0.15): 0.92 ± 0.04 mPa·s
viscosity (323.2 K, w1 = 0.2): 1.05 ± 0.04 mPa·s
viscosity (323.2 K, w1 = 0.2501): 1.2 ± 0.04 mPa·s
